Test results taken from ChEMBL document CHEMBL4823243, “Synergistic induction of apoptosis in resistant head and neck carcinoma and leukemia by alkoxyamide-based histone deacetylase inhibitors” (Eur J Med Chem, 2021).
Active and inactive are the calls of the source. The rule behind the calls is not given here.

What was measured:
[1] = molecular target: Histone deacetylase; assay: Inhibition of HDAC in human A2780 cells using Boc-Lys (acetyl)-AMC as substrate preincubated for 18 hrs followed by susbtrate addition and measured after 3 hrs by fluorescence microplate reader assay; format: cell-based
[2] = molecular target: Histone deacetylase; assay: Inhibition of HDAC in human CAL-27 cells using Boc-Lys (acetyl)-AMC as substrate preincubated for 18 hrs followed by susbtrate addition and measured after 3 hrs by fluorescence microplate reader assay; format: cell-based
[3] = tested on: A2780; assay: Antiproliferative activity against human A2780 cells assessed as reduction in cell viability after 72 hrs by MTT assay; format: functional, cell-based; settings: A2780, 72 h
[4] = tested on: CAL-27; assay: Antiproliferative activity against human CAL-27 cells assessed as reduction in cell viability after 72 hrs by MTT assay; format: functional, cell-based; settings: CAL-27, 72 h
[5] = Inhibition of Class 1/2b HDAC in human HL-60 cells by HDAC-Glo assay; format: cell-based
[6] = tested on: HL-60; assay: Antiproliferative activity against human HL-60 cells assessed as reduction in cell viability for 72 hrs by Celltitre-Glo luminescent assay; format: functional, cell-based; settings: HL-60, 72 h
[7] = molecular target: T1, Protein deacetylase HDAC6 (Homo sapiens) (UniProt Q9UBN7); assay: Inhibition of HDAC6 in human CAL-27 cells assessed as accumulation of acetylated alpha-tubulin at 1 uM for 24 hrs by Western blot analysis; format: cell-based
T1 sequence (whole entry): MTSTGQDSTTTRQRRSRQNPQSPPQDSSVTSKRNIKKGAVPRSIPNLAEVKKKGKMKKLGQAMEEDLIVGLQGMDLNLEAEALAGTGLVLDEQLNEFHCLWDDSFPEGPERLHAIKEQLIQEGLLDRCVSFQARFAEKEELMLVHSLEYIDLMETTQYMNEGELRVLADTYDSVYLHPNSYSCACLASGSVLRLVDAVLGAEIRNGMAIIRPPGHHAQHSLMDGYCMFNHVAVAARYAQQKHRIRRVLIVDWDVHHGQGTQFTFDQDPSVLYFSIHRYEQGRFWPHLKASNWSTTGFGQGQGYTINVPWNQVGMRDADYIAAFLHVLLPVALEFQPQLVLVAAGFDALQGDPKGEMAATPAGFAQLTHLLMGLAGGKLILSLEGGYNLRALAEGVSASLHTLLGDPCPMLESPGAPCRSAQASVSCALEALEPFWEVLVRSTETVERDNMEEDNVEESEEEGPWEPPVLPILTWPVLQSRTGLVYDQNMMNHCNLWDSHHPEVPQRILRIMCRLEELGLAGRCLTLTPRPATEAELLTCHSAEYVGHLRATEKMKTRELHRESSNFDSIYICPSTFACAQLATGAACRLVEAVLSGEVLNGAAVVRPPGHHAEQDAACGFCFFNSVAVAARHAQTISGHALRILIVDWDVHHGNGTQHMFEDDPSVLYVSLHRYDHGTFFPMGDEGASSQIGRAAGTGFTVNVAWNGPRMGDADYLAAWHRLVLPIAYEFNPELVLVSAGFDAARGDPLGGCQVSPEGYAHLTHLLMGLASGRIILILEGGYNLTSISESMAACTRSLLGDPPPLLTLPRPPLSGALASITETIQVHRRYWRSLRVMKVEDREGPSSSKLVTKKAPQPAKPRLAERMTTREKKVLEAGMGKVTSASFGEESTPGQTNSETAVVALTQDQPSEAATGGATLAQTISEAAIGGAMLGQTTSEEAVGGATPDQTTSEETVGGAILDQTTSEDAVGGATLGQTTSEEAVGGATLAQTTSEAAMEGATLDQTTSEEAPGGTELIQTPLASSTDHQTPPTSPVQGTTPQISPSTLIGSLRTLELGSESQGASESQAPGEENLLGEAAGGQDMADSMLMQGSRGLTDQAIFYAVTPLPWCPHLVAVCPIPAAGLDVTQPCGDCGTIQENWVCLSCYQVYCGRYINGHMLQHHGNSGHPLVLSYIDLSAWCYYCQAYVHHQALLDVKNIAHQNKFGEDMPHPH

[8] = molecular target: Histone deacetylase 2 (Homo sapiens, UniProt Q92769); assay: Inhibition of recombinant human full length C-terminal GST-fusion tagged HDAC2 expressed in baculovirus infected insect cells using Boc-Lys(Ac)-AMC as substrate preincubated for 5 mins followed by substrate addition measured after 90 mins by fluorimetry; format: cell-based
Histone deacetylase 2, sequence (Q92769 whole entry, the tested form may be a part): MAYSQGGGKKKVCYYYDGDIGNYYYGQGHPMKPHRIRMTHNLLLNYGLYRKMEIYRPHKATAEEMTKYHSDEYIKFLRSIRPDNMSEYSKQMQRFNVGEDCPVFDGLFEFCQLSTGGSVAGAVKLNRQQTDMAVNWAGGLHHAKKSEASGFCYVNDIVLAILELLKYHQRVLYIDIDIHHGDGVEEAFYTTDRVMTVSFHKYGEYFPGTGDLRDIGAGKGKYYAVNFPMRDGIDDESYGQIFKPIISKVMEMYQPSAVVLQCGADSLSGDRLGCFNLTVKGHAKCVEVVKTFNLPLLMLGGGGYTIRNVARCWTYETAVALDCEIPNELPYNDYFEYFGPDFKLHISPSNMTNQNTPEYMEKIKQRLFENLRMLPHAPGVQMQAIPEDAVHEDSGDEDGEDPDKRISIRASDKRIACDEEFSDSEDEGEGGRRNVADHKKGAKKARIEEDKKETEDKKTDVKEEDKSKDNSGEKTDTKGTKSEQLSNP

[9] = molecular target: Histone deacetylase 4 (Homo sapiens, UniProt P56524); assay: Inhibition of recombinant human N-terminal GST-fusion tagged/C-terminal GST-tagged HDAC4 (627 to 1084 residues) expressed in baculovirus infected insect cells using Boc-Lys(TFA)-AMC as substrate preincubated for 5 mins followed by substrate addition measured after 90 mins by fluorimetry
Histone deacetylase 4, sequence (P56524 whole entry, the tested form may be a part): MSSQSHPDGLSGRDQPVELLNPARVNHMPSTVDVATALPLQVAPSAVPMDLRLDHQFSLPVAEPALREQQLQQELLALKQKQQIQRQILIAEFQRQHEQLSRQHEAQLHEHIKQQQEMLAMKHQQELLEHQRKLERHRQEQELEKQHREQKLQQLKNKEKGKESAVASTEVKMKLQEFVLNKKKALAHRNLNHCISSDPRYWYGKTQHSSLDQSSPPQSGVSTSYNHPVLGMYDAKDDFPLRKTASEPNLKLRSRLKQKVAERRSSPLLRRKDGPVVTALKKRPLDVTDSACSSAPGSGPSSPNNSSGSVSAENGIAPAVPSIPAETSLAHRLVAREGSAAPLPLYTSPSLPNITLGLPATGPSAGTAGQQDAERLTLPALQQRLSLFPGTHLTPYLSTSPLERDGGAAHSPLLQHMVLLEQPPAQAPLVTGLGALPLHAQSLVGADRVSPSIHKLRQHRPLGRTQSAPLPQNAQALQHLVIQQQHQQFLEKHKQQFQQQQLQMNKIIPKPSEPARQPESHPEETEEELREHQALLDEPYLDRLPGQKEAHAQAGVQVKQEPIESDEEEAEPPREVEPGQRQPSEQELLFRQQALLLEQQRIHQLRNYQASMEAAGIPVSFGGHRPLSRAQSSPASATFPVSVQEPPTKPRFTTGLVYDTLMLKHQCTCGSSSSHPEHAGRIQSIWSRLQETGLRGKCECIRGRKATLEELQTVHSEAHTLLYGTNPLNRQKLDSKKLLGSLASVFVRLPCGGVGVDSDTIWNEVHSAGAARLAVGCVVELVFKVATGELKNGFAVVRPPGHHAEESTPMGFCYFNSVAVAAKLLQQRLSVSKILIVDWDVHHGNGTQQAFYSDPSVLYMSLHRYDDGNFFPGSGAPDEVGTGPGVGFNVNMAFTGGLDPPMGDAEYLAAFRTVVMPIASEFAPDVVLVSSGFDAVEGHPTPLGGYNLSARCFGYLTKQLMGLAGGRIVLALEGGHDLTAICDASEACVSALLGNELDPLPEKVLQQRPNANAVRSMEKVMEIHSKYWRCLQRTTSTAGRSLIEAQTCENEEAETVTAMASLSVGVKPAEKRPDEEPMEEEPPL

[10] = molecular target: T2, Protein deacetylase HDAC6 (Homo sapiens, UniProt Q9UBN7); assay: Inhibition of recombinant human N-terminal GST-tagged HDAC6 (1 to 1215 residues) expressed in baculovirus infected insect cells using Boc-Lys(Ac)-AMC as substrate preincubated for 5 mins followed by substrate addition measured after 90 mins by fluorimetry
T2 sequence (Q9UBN7 whole entry): T1 sequence (whole entry)

[11] = molecular target: T3, Histone deacetylase 8 (Homo sapiens, UniProt Q9BY41); assay: Inhibition of recombinant human C-terminal His-fusion tagged/N-terminal Strep2 tagged HDAC8 (1 to 377 residues) expressed in insect cells using Boc-Lys(TFA)-AMC as substrate preincubated for 5 mins followed by substrate addition measured after 90 mins by fluorimetry
T3 sequence (Q9BY41 whole entry): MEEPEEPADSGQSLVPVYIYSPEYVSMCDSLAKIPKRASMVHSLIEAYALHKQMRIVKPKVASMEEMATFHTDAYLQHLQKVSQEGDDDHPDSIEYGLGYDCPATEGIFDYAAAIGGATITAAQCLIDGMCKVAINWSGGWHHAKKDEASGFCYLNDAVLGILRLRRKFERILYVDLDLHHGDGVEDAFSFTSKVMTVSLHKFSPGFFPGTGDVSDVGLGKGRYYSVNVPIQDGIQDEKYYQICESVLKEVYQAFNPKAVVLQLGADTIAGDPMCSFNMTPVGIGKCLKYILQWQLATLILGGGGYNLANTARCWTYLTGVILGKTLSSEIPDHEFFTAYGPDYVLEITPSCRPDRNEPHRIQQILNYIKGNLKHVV

[12] = molecular target: T4, Histone deacetylase (Homo sapiens) (UniProt Q13547+O15379+Q9UBN7+Q92769+Q9UQL6+Q8WUI4+Q9BY41+Q96DB2+P56524+Q9UKV0+Q969S8); assay: Inhibition of HDAC in human Cal27CisR cells assessed as potentiation of cisplatin-induced cytotoxicity by measuring fold reduction in cisplatin IC50 at 0.3 to 0.5 uM pretreated for 48 hrs followed by cisplatin addition and measured after 72 hrs by MTT assay relative to cisplatin alone; format: cell-based; settings: dose 0.3-0.5 µM, time 120.0 hrs
[13] = molecular target: T4, Histone deacetylase (Homo sapiens); assay: Inhibition of HDAC in human CAL-27 cells assessed as potentiation of cisplatin-induced cytotoxicity by measuring fold reduction in cisplatin IC50 at 0.3 to 0.5 uM pretreated for 48 hrs followed by cisplatin addition and measured after 72 hrs by MTT assay relative to cisplatin alone; format: cell-based; settings: dose 0.3-0.5 µM, time 120.0 hrs
[14] = molecular target: Histone deacetylase; assay: Inhibition of HDAC in human Cal27CisR cells assessed as potentiation of cisplatin-induced cytotoxicity by measuring cisplatin IC50 at 0.3 to 0.5 uM pretreated for 48 hrs followed by cisplatin addition and measured after 72 hrs by MTT assay (reference value: 3.57 uM); format: cell-based
[15] = molecular target: Histone deacetylase; assay: Inhibition of HDAC in human CAL-27 cells assessed as potentiation of cisplatin-induced cytotoxicity by measuring cisplatin IC50 at 0.3 to 0.5 uM pretreated for 48 hrs followed by cisplatin addition and measured after 72 hrs by MTT assay (reference value: 3.57 uM); format: cell-based
[16] = molecular target: T1, Protein deacetylase HDAC6 (Homo sapiens); assay: Inhibition of HDAC6 in human CAL-27 cells assessed as accumulation of acetylated alpha-tubulin at 5 uM for 24 hrs by Western blot analysis; format: cell-based
[17] = molecular target: T4, Histone deacetylase (Homo sapiens); assay: Inhibition of HDAC in human Cal27CisR cells assessed as potentiation of cisplatin-induced cytotoxicity by measuring cisplatin IC50 at 3 to 4 uM pretreated for 48 hrs followed by cisplatin addition and measured after 72 hrs by MTT assay relative to cisplatin alone; format: cell-based; settings: dose 3-4 µM, time 120.0 hrs
[18] = molecular target: T4, Histone deacetylase (Homo sapiens); assay: Inhibition of HDAC in human CAL-27 cells assessed as potentiation of cisplatin-induced cytotoxicity by measuring cisplatin IC50 at 3 to 4 uM pretreated for 48 hrs followed by cisplatin addition and measured after 72 hrs by MTT assay relative to cisplatin alone; format: cell-based; settings: dose 3-4 µM, time 120.0 hrs
[19] = molecular target: Histone deacetylase; assay: Inhibition of HDAC in human Cal27CisR cells assessed as potentiation of cisplatin-induced cytotoxicity by measuring cisplatin IC50 at 3 to 4 uM pretreated for 48 hrs followed by cisplatin addition and measured after 72 hrs by MTT assay (reference value: 3.57 uM); format: cell-based
[20] = molecular target: Histone deacetylase; assay: Inhibition of HDAC in human CAL-27 cells assessed as potentiation of cisplatin-induced cytotoxicity by measuring cisplatin IC50 at 3 to 4 uM pretreated for 48 hrs followed by cisplatin addition and measured after 72 hrs by MTT assay (reference value: 3.57 uM); format: cell-based

Structure (SMILES)	IC50 [1]	IC50 [2]	IC50 [3]	IC50 [4]	other results
O=C(CCCCCONC(=O)c1nc2ccccc2[nH]1)NO	9080 nM	4170 nM	> 100000 nM	58200 nM	–
O=C(CCCCCONC(=O)c1cc2ccccc2s1)NO	1580 nM	2250 nM	4880 nM	500 nM	–
O=C(CCCCCONC(=O)c1cccc2ccccc12)NO	2390 nM	1890 nM	7600 nM	4200 nM	–
CC(C)(C)OC(=O)Nc1ccc(-c2cc(C(=O)NCCCCCCC(=O)NO)no2)cc1	–	–	–	–	IC50 [5]: 109 nM; IC50 [6]: 594 nM
O=C(CCCCCONC(=O)Cc1ccc2ccccc2c1)NO	3710 nM	1720 nM	6280 nM	3570 nM	–
O=C(CCCCCCNC(=O)c1cnc(N(c2ccccc2)c2ccccc2)nc1)NO [RICOLINOSTAT]	–	–	–	–	IC50 [5]: 902 nM; IC50 [6]: > 10000 nM
O=C(CCCCCONC(=O)c1cc2ccccc2o1)NO	1710 nM	1990 nM	5560 nM	780 nM	–
O=C(CCCCCONC(=O)c1c[nH]c2ccccc12)NO	1360 nM	810 nM	7800 nM	1700 nM	–
O=C(CCCCCONC(=O)c1ccc2[nH]ccc2c1)NO	850 nM	450 nM	7500 nM	1300 nM	–
Nc1ccccc1NC(=O)c1ccc(CNC(=O)OCc2cccnc2)cc1	–	–	–	–	inhibition [7]: inactive
O=C(CCCCCONC(=O)c1ccc2ccccc2c1)NO	350 nM	100 nM	1000 nM	180 nM	IC50 [8]: 41 nM; IC50 [9]: 51800 nM; IC50 [10]: 11 nM; IC50 [11]: 3790 nM; Ratio IC50 [12]: 5.09; Ratio IC50 [13]: 1.54; IC50 [14]: 9530 nM; IC50 [15]: 2320 nM; inhibition [16]: Active
O=C(CCCCCONC(=O)c1ccc2cc[nH]c2c1)NO	600 nM	400 nM	11300 nM	4300 nM	–
O=C(CCCCCONC(=O)c1ccnc2ccccc12)NO	7680 nM	5970 nM	70000 nM	11900 nM	–
O=C(CCCCCONC(=O)c1cccc2[nH]ccc12)NO	740 nM	480 nM	5300 nM	1200 nM	–
O=C(CCCCCONC(=O)c1cnc2ccccc2n1)NO	190 nM	490 nM	7700 nM	800 nM	IC50 [8]: 44 nM; IC50 [9]: 60800 nM; IC50 [10]: 18 nM; IC50 [11]: 7950 nM; Ratio IC50 [17]: 2.6; Ratio IC50 [18]: 1.23; IC50 [19]: 18700 nM; IC50 [20]: 2900 nM
O=C(CCCCCONC(=O)c1cccc2cc[nH]c12)NO	640 nM	460 nM	1000 nM	1000 nM	–
O=C(CCCCCONC(=O)c1nc2ccccc2s1)NO	2700 nM	3160 nM	21800 nM	6330 nM	–
O=C(CCCCCONC(=O)c1[nH]nc2ccccc12)NO	710 nM	430 nM	7600 nM	1800 nM	–
